{
  "source": "EPA's ToxValDB 9.5 (doi:10.2903/j.efsa.2008.122r)",
  "key": {"Aphidius rhopalosiphi": {"tested_on": "Aphidius rhopalosiphi", "conditions": "not reported"}, "Apis mellifera": {"tested_on": "Apis mellifera", "conditions": "acute; duration: 48 hours; dermal; mortality"}, "Cyprinus carpio": {"tested_on": "Cyprinus carpio", "conditions": "acute; duration: 96 hours; mortality"}, "Daphnia magna": {"tested_on": "Daphnia magna", "conditions": "chronic/long-term; duration: 21 days"}, "Oncorhynchus mykiss": {"tested_on": "Oncorhynchus mykiss", "conditions": "chronic/long-term; duration: 35 days; growth"}, "Rattus norvegicus": {"tested_on": "Rattus norvegicus", "conditions": "for NOAEL: body weight"}},
  "data": [
    {"smiles": "O=C(Nc1ccc(F)cc1F)c1cccnc1Oc1cccc(C(F)(F)F)c1", "note": "[Diflufenican]", "values": [
      {"measurement": "LEL", "setting": "Aphidius rhopalosiphi; mortality", "result": 188, "unit": "g/ha"},
      {"measurement": "LEL", "setting": "Aphidius rhopalosiphi; reproduction", "result": 188, "unit": "g/ha"},
      {"measurement": "LD50", "setting": "Apis mellifera", "result": "> 100", "unit": "µg/piece"},
      {"measurement": "LD50", "setting": "Bird; acute, oral, unspecified, mortality", "result": "> 2150", "unit": "mg/kg"},
      {"measurement": "NOEC", "setting": "Bird; reproductive", "result": 91.8, "unit": "mg/kg"},
      {"measurement": "LC50", "setting": "Cyprinus carpio", "result": 0.0985, "unit": "µg/mL"},
      {"measurement": "NOEC", "setting": "Daphnia magna", "result": 0.052, "unit": "mg/L"},
      {"measurement": "NOEC", "setting": "Oncorhynchus mykiss", "result": 0.015, "unit": "mg/L"},
      {"measurement": "LD50", "setting": "Rattus norvegicus; acute, oral, mortality", "result": "> 5000", "unit": "mg/kg"},
      {"measurement": "NOAEL", "setting": "Rattus norvegicus; chronic, duration: 2 years", "result": 23.3, "unit": "mg/kg-day"},
      {"measurement": "NOAEL", "setting": "Rattus norvegicus; reproduction developmental, M", "result": 35.5, "unit": "mg/kg-day"},
      {"measurement": "NOAEL", "setting": "Rattus norvegicus; subchronic, duration: 13 weeks, oral", "result": 19.5, "unit": "mg/kg-day"},
      {"measurement": "LC50", "setting": "Tagia sp.; acute, duration: 14 days, mortality", "result": "> 1000", "unit": "mg/kg"},
      {"measurement": "NOEC", "setting": "Tagia sp.; chronic/long-term, reproduction", "result": 1000, "unit": "mg/kg"}
    ]}
  ]
}
